# Test results as given in patent EP2970215B1, “PYRROLIDINE DERIVATIVES, PHARMACEUTICAL COMPOSITIONS CONTAINING THEM, AND THEIR USE IN THERAPY” (AbbVie Deutschland GmbH & Co. KG, priority 2013, dated 2014).
# Molecular target: T1, human GlyT1c transporter (Homo sapiens, UniProt P48067)
# T1 construct: expressed in transfected cells; host or cells: CHO cells (recombinant; line hGlyT1c_5_CHO is named for the uptake assay)
# T1 sequence (P48067 1-706): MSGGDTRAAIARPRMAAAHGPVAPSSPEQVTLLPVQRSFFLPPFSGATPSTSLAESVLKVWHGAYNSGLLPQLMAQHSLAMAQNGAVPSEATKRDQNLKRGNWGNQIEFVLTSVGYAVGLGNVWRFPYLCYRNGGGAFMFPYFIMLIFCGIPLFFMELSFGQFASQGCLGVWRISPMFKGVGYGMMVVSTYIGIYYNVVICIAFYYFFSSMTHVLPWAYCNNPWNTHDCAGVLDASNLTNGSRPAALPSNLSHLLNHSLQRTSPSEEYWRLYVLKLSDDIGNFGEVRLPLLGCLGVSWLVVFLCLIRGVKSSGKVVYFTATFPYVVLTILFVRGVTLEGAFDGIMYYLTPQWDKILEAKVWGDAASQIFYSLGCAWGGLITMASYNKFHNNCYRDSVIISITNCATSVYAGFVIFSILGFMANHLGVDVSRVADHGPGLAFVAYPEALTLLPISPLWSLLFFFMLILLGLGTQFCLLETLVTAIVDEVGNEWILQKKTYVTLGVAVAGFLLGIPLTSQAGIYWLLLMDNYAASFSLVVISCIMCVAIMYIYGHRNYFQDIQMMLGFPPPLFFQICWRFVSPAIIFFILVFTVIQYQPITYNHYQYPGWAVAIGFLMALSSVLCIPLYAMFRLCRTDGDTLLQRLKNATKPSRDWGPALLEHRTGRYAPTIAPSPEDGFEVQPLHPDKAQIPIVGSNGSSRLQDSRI
# Test: Radioligand binding assay using recombinant CHO cell membranes expressing human GlyT1
# Conditions: radioligand binding to human GlyT1c transporter-expressing membranes
# Excerpt: 2. Radioligand binding assays using recombinant CHO cell membranes expressing human GlyT1: […]
row,SMILES,Ki [nM]
1,"Cc1ccc(S(=O)(=O)N2CC(Nc3ccc(F)c(F)c3)C(c3ccccc3)C2)s1 (stereo not shown) [Example 518, N-(3,4-difluorophenyl)-1-[(5-methylthiophen-2-yl)sulfonyl]-4-phenylpyrrolidin-3-amine]",> 10000
2,"Cn1cnc(S(=O)(=O)N2C[C@H](NCC(C)(C)C)[C@@H](c3ccccc3)C2)c1 [Example 436, (3R,4S)-N-(2,2-dimethylpropyl)-1-[(1-methyl-1H-imidazol-4-yl)sulfonyl]-4-phenylpyrrolidin-3-amine]",≤ 1000
3,"Cn1cnc(S(=O)(=O)N2C[C@@H](NCc3ccc(C(F)(F)F)cc3Cl)[C@H](C3CCCCO3)C2)c1 (relative stereo) [Example 680, Trans-N-[2-chloro-4-(trifluoromethyl)benzyl]-1-[(1-methyl-1H-imidazol-4-yl)sulfonyl]-4-(tetrahydro-2H-pyran-2-yl)pyrrolidin-3-amine]",≤ 100
4,"Cn1cnc(S(=O)(=O)N2C[C@H](NCc3nc4ccccc4s3)[C@@H](c3ccccc3)C2)c1 [Example 453, (3R,4S)-N-(1,3-benzothiazol-2-ylmethyl)-1-[(1-methyl-1H-imidazol-4-yl)sulfonyl]-4-phenylpyrrolidin-3-amine]",≤ 1000
5,"Cn1cnc(S(=O)(=O)N2C[C@@H](CNc3cccc(C(N)=O)c3)[C@H](c3ccc(F)cc3)C2)c1 (relative stereo) [Example 364, 3-[({Trans-4-(4-fluorophenyl)-1-[(1-methyl-1H-imidazol-4-yl)sulfonyl]pyrrolidin-3-yl}methyl)amino]benzamide]",≤ 10000
6,"Cn1cnc(S(=O)(=O)N2C[C@@H](NC(=O)C3(C(F)(F)F)CC3)[C@H](c3ccccn3)C2)c1 (relative stereo) [Example 374, N-[Trans-1-[(1-methyl-1H-imidazol-4-yl)sulfonyl]-4-(pyridin-2-yl)pyrrolidin-3-yl]-1-(trifluoromethyl)cyclopropanecarboxamide]",≥ 10000
7,"Cn1cnc(S(=O)(=O)N2C[C@@H](Nc3cc(F)c(F)c(Cl)c3)[C@H](c3ccc(F)cc3)C2)c1 (relative stereo) [Example 175, trans-N-(3-chloro-4,5-difluorophenyl)-4-(4-fluorophenyl)-1-[(1-methyl-1H-imidazol-4-yl)sulfonyl]pyrrolidin-3-amine]",≤ 1000
8,"Cn1cnc(S(=O)(=O)N2C[C@H](Nc3cccc4c3CNC4=O)[C@@H](c3ccccc3)C2)c1 [Example 421, 4-({(3R,4S)-1-[(1-methyl-1H-imidazol-4-yl)sulfonyl]-4-phenylpyrrolidin-3-yl}amino)-2,3-dihydro-1H-isoindol-1-one]",≤ 10000
9,"Cn1cnc(S(=O)(=O)N2C[C@H](Nc3ccc(F)c(OC(F)(F)F)c3)[C@@H](c3ccccc3)C2)c1 [Example 646, (3R,4S)-N-[4-fluoro-3-(trifluoromethoxy)phenyl]-1-[(1-methyl-1H-imidazol-4-yl)sulfonyl]-4-phenylpyrrolidin-3-amine]",≤ 10
10,"Cn1cnc(S(=O)(=O)N2C[C@H](Nc3cccc(C(C)(O)C(F)(F)F)c3)[C@@H](c3ccccc3)C2)c1 (stereo partly drawn) [Example 399, 1,1,1-trifluoro-2-[3-({(3R,4S)-1-[(1-methyl-1H-imidazol-4-yl)sulfonyl]-4-phenylpyrrolidin-3-yl}amino)phenyl]propan-2-ol]",≤ 100
11,"CCOC(=O)N[C@H]1CN(S(=O)(=O)c2cn(C)cn2)C[C@@H]1c1ccccc1 [Example 541, ethyl {(3R,4S)-1-[(1-methyl-1H-imidazol-4-yl)sulfonyl]-4-phenylpyrrolidin-3-yl}carbamate]",≤ 10000
12,"Cn1cnc(S(=O)(=O)N2C[C@H](Nc3cc(F)ccn3)[C@@H](c3ccc(F)cc3)C2)c1 [Example 736, 4-fluoro-N-{(3R,4S)-4-(4-fluorophenyl)-1-[(1-methyl-1H-imidazol-4-yl)sulfonyl]pyrrolidin-3-yl}pyridin-2-amine]",≤ 1000
13,"Cn1cnc(S(=O)(=O)N2C[C@@H](Nc3cccc(C(F)(F)F)n3)[C@H](c3cccc(F)c3)C2)c1 (relative stereo) [Example 195, N-{trans-4-(3-fluorophenyl)-1-[(1-methyl-1H-imidazol-4-yl)sulfonyl]pyrrolidin-3-yl} -6-(trifluoromethyl)pyridin-2-amine]",≤ 10000
14,Cn1cnc(S(=O)(=O)N2C[C@H](NCc3cccc(C(F)(F)F)n3)[C@@H](c3ccccc3)C2)c1 [Example 552],≤ 10000
15,"Cn1cnc(S(=O)(=O)N2C[C@H](Nc3cc(OCC4CCNC4)ncn3)[C@@H](c3ccc(F)cc3)C2)c1 (stereo partly drawn) [Example 779, N-{(3R,4S)-4-(4-fluorophenyl)-1-[(1-methyl-1H-imidazol-4-yl)sulfonyl]pyrrolidin-3-yl}-6-(pyrrolidin-3-ylmethoxy)pyrimidin-4-amine]",≤ 10000
16,"Cn1cnc(S(=O)(=O)N2C[C@@H](NC(=O)c3ccc(F)cc3Cl)[C@H](c3ccccc3)C2)c1 (relative stereo) [Example 27, 2-chloro-4-fluoro-N-{trans-1-[(1-methyl-1H-imidazol-4-yl)sulfonyl]-4-phenylpyrrolidin-3-yl}benzamide]",≤ 1000
17,"Cn1cnc(S(=O)(=O)N2C[C@H](NCCCCC(C)(F)F)[C@@H](c3ccc(F)cc3)C2)c1 [Example 739, (3R,4S)-N-(5,5-difluorohexyl)-4-(4-fluorophenyl)-1-[(1-methyl-1H-imidazol-4-yl)sulfonyl]pyrrolidin-3-amine]",≤ 100
18,"Cn1cnc(S(=O)(=O)N2C[C@@H](C(=O)Nc3ccc(C(F)(F)F)c(Cl)c3)[C@H](c3ccc(F)cc3)C2)c1 (relative stereo) [Example 276, trans-N-[3-chloro-4-(trifluoromethyl)phenyl]-4-(4-fluorophenyl)-1-[(1-methyl-1H-imidazol-4-yl)sulfonyl]pyrrolidine-3-carboxamide]",≤ 1000
19,"Cn1cnc(S(=O)(=O)N2C[C@H](NCCOc3ccc(C(C)(C)C)cc3)[C@@H](c3ccccc3)C2)c1 [Example 469, (3R,4S)-N-[2-(4-tert-butylphenoxy)ethyl]-1-[(1-methyl-1H-imidazol-4-yl)sulfonyl]-4-phenylpyrrolidin-3-amine]",≤ 1000
20,"N#Cc1cccc(N[C@@H]2CN(S(=O)(=O)c3ccc(C(F)(F)F)cc3)C[C@H]2c2ccccc2)c1 (relative stereo) [Example 144, 3-{[trans-4-phenyl-1-{[4-(trifluoromethyl)phenyl]sulfonyl}pyrrolidin-3-yl]amino}benzonitrile]",> 10000
21,"Cn1cnc(S(=O)(=O)N2C[C@@H](CNc3ccc(Cl)c(OC(F)(F)F)c3)[C@H](c3ccc(F)cc3)C2)c1 (relative stereo) [Example 377, 4-chloro-N-({trans-4-(4-fluorophenyl)-1-[(1-methyl-1H-imidazol-4-yl)sulfonyl]pyrrolidin-3-yl}methyl)-3-(trifluoromethoxy)aniline]",≤ 1000
22,"Cn1cnc(S(=O)(=O)N2C[C@@H]([C@@H]3CCCOC3)[C@H](Nc3cccc(-c4ccccc4)c3)C2)c1 (mixture of isomers) [Example 787, trans-N-(biphenyl-3-yl)-1-[(1-methyl-1H-imidazol-4-yl)sulfonyl]-4-[(3S)-tetrahydro-2H-pyran-3-yl]pyrrolidin-3-amine]",≤ 1000
23,"CCCS(=O)(=O)N1C[C@@H](NC(=O)c2ccc(C(F)(F)F)cc2)[C@H](c2ccccc2)C1 (relative stereo) [Example 125, N-[trans-4-phenyl-1-(propylsulfonyl)pyrrolidin-3-yl]-4-(trifluoromethyl)benzamide]",> 10000
24,"CCCc1cc(N[C@H]2CN(S(=O)(=O)c3cn(C)cn3)C[C@@H]2c2ccc(F)cc2)ncn1 [Example 616, N-{(3R,4S)-4-(4-fluorophenyl)-1-[(1-methyl-1H-imidazol-4-yl)sulfonyl]pyrrolidin-3-yl}-6-propylpyrimidin-4-amine]",≤ 1000
25,"Cn1cnc(S(=O)(=O)N2C[C@@H](Nc3ccc(Cl)c(Cl)c3)[C@H](c3ccc(F)cc3)C2)c1 (relative stereo) [Example 161, trans-N-(3,4-dichlorophenyl)-4-(4-fluorophenyl)-1-[(1-methyl-1H-imidazol-4-yl)sulfonyl]pyrrolidin-3-amine]",≤ 1000
26,"Cn1cnc(S(=O)(=O)N2C[C@@H](Nc3cc(Cl)ncn3)[C@H](c3ncccc3F)C2)c1 (relative stereo) [Example 772, 6-chloro-N-{trans-4-(3-fluoropyridin-2-yl)-1-[(1-methyl-1H-imidazol-4-yl)sulfonyl]pyrrolidin-3-yl}pyrimidin-4-amine]",≤ 10000
27,"Cn1cnc(S(=O)(=O)N2C[C@H](NCC3CCOC3)[C@@H](c3ccccc3)C2)c1 (stereo partly drawn) [Example 447, (3R,4S)-1-[(1-methyl-1H-imidazol-4-yl)sulfonyl]-4-phenyl-N-(tetrahydrofuran-3-ylmethyl)pyrrolidin-3-amine]",≤ 10000
28,"Cn1cnc(S(=O)(=O)N2C[C@H](NCCC3CCCC3)[C@@H](c3ccccc3)C2)c1 [Example 427, (3R,4S)-N-(2-cyclopentylethyl)-1-[(1-methyl-1H-imidazol-4-yl)sulfonyl]-4-phenylpyrrolidin-3-amine]",≤ 100
